Results from patent US20150297761A1, “PEPTIDIC STRUCTURES INCORPORATING AN AMINO ACID METAL COMPLEX AND APPLICATIONS IN MAGNETIC RESONANCE IMAGING” (THE GENERAL HOSPITAL CORPORATION, priority 2012, published 2015).

What was measured:
[1] = target: HSA (Homo sapiens, UniProt P02768); assay: HSA binding by ultrafiltration and ICP-MS (Example 3); format: in vitro ADME; settings: 0.1 mM compound, 4.5% (w/v) HSA, 37° C.
Method: In order to measure HSA binding of the complexes, a 0.1 mM solution (determined by ICP-MS) of the corresponding Gd complex in 4.5% w/v HSA was prepared and pipetted into a Ultrafree-MC Microcentrifuge Filter (NMWL 5,000 Da, PLCC, Millipore). The mixture is incubated at 37° C. for 10 minutes and subsequently centrifuged at 12,000 rpm for 15 minutes. Binding is determined by measurement of Gd content in the filtrate by ICP-MS.

[2] = Relaxivity in the absence and presence of HSA (Example 3); format: physicochemical; settings: for r1 (20 MHz), absence of HSA / r1 (60 MHz), absence of HSA: absence of HSA (first value of cell); for r1 (20 MHz), presence of HSA / r1 (60 MHz), presence of HSA: presence of HSA (second value of cell)
Method: ^1H and ^13C NMR spectra were recorded on a Varian 500 NMR system equipped with a 5 mm broadband probe. Longitudinal relaxation times, T1, were measured by using the inversion recovery method on Bruker Minispecs. mq20 (20 MHz) and mq60 (60 MHz). Purification via HPLC of intermediates toward Fmoc-DOTAla was performed using method A: Injection of crude mixture onto preparative HPLC on a Rainin, Dynamax (column: 250 mm Kromasil C18) by using A: 0.1% TFA in water, B: 0.1% TFA in MeCN, flow-rate 15 mL/min, 1 over 23 minutes. HPLC purity analysis (both UV and MS detection) was carried out on an Agilent 1100 system (column: Phenomenex Luna, C18(2) 100/2 mm) with UV detection at 220, 254 and 280 nm by using a method B: A gradient of A(0.1% formic acid in water) to 95% B(0.1% formic acid in MeCN), flow-rate 0.8 mL/min, 1 over 15 minutes.

[3] = Kinetic inertness: Zn(II) transmetallation in phosphate buffer, followed by 1/T1; format: physicochemical
From the text: Kinetic inertness was also taken into account in the evaluation of potential probes. In this regard, [Gd(CyPic3A)(H2O)2]^− was challenged with 1 equiv. [ZnPO4]^− as a slurry in pH 7.0 phosphate buffer at 310 K (see below). Several clinically utilized Gd(III) complexes have been benchmarked relative to one another in this manner.^37 As Gd(III) replaced by Zn(II) precipitates from the solution as GdPO4, the relaxation rate 1/T1 decreases. In this method, the time required to reach 80% of the initial 1/T1 value was utilized as an index of kinetic inertness.
Modified conditions of Muller and co-workers were used for this experiment.^11,12 Solutions containing 2.5 mM [Gd(CyPic3A)(H2O)2]^− and 2.5 mM Zn(OTf)2 were combined in pH 7.0 phosphate buffer (50 mM) and placed in an incubator shaker set to 310 K. Progress of the transchelation was monitored via the decrease in 1/T1 with time. Prior to measurement, aliquots were placed in small glass inserts and centrifuged to bring all insoluble material to the bottom so as not to interfere with the measurement.

[4] = hydration state; literature (superscript refs); cited from earlier work
[5] = 310 K, cited from earlier work; for r1 0.47 T 310K: literature (superscript refs); for r1 1.41 T 310K: cell says 1.5 T, literature (ref 17)
[6] = Relaxivity of Gd(DOTAla) metallopeptides and reference agents (T1 inversion recovery, 37° C.); format: physicochemical
Method: Main numbers are given per Gd, numbers in parentheses are per molecule values. All numbers were determined at 37° C. using an inversion recovery sequence at concentrations ranging from 0.05 to 0.6 mM/Gd. Table 4 in Example 2 further expands the data of Table 1.
Per Gd relaxivities were determined by measuring T1 at 37° C. using 20, 60, 200, 400 and 500 MHz spectrometers. Relaxivities for MS-325 (with and without the presence of HSA) as a reference compound with a long τR and [Gd(HP-DO3A)(H2O)] as a reference for very short τR were also measured, and all the relaxivity data is tabulated in Table 4, together with results obtained from literature for the compounds with similar estimated τR. […] Additional rigidity through cyclization seems to provide only minor relaxivity increase for the dimeric and trimeric systems (Gd2C2 and Gd3C3).
Measurement of relaxivity. Longitudinal relaxation times T1, were measured on Bruker Minispecs mq20 (0.47 T) and mq60 (1.41 T), a Bruker Bioscan horizontal bore 4.7 T, 9.4 T and 11.7 T Varian NMR spectrometers. T1 was measured by using an inversion recovery method with 10 inversion time values ranging from 0.05×T1 to 5×T1. Relaxivity was calculated from a linear plot of 3 or 4 different concentrations (ranging from 0.01 to 0.5 mM, depending on amount of compound isolated) versus the corresponding inverse relaxation times. All samples were measured at 37° C. using either the internal temperature control of the instrument (0.47, 1.41, 9.4 and 11.7 T) or a warm air blower (4.7 T). MS-325/HSA was prepared in a 4.5% w/v solution of HSA (0.66 mM) in PBS. The MS-325 concentration (in presence of HSA) ranged from 0.05 to 0.15 mM.

[7] = cited from earlier work
[8] = Ligand challenge, equilibrium constant Kcomp of MS-325 vs. L; format: physicochemical; settings: calculated from literature thermodynamic data
Method: (§1) Equilibration of each solution was monitored by LC-MS. Relative distributions of [Gd(CyPic3A)(H2O)2]^− and CyPic3A were determined by integrating the corresponding absorbance traces at 280 nm. […] Kcomp values determined between [Gd(DTPA)(H2O)]^2− and various ligands were determined from conditional formation constants (Kcond)^4 values taken from the literature.^6-16 Direct comparisons were only made between Kcond values determined under identical conditions.

[9] = Ligand challenge, equilibrium constant Kcomp of [Gd(DTPA)(H2O)]2− vs. L; format: physicochemical; settings: calculated from literature thermodynamic data
Method: As a means of assessing thermodynamic stability relative to other Gd(III)-complexes, [Gd(CyPic3A)(H2O)2]^− was challenged with DTPA in pH 7.4 25 mM Tris buffer. […] From this information it was possible to deduce equilibrium constants (Kcomp) for the competition reaction described in Equation 5,^31 where L=DTPA and L′=challenging chelator.
as §1

Sequence of HSA (P02768 25-609): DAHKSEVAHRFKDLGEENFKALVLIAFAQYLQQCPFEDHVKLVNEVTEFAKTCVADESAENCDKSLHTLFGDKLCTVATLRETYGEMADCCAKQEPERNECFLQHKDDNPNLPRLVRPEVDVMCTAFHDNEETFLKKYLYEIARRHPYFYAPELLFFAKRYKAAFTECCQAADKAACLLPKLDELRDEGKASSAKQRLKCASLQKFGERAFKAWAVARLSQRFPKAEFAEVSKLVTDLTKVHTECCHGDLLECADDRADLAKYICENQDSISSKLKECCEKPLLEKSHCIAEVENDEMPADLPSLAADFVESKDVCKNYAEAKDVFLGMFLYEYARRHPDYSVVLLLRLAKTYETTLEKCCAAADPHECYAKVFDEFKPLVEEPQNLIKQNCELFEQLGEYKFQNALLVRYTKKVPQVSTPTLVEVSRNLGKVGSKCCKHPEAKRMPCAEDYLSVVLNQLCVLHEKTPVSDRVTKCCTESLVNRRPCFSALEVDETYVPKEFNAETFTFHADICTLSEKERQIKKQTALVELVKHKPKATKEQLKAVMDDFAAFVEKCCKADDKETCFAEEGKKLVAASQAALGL

Row | Compound | % HSA binding [1] [%] | r1 (20 MHz), absence of HSA [2] [mM⁻¹ s⁻¹] | r1 (20 MHz), presence of HSA [2] [mM⁻¹ s⁻¹] | r1 (60 MHz), absence of HSA [2] [mM⁻¹ s⁻¹] | r1 (60 MHz), presence of HSA [2] [mM⁻¹ s⁻¹] | further results
1 | 2,2′,2″-(10-(3-(((1-Carboxy-2-(4-hydroxy-3,5-diiodophenyl)ethyl)-amino)-2-(2-(4-isobutylphenyl)propanamido)-3-oxopropyl)-1,4,7,10-tetraazacyclododecane-1,4,7-triyl)triacetic Acid [Gd (8)] | 90 | 7.1 | 31.8 | 6.7 | 21.1 | 
2 | COC(=O)CNC(=O)C(CN1CCN(CC(=O)O)CCN(CC(=O)O)CCN(CC(=O)O)CC1)NC(=O)C(N)Cc1cc(I)c(O)c(I)c1 (stereo not shown) [Gd (7), 2,2′,2″-(10-(2-(2-amino-3-(4-hydroxy-3,5-diiodophenyl)propanamido)-3-((2-methoxy-2-oxoethyl)amino)-3-oxopropyl)-1,4,7,10-tetraazacyclododecane-1,4,7-triyl)triacetic acid] | 6 | 4.7 | 7.05 | 3.9 | 6.9 | 
3 | C[C@@H](C(=O)NC(CN1CCN(CC(=O)O)CCN(CC(=O)O)CCN(CC(=O)O)CC1)C(=O)N[C@@H](Cc1cc(I)c(O)c(I)c1)C(=O)O)c1ccccc1 (stereo partly drawn) [Gd (19), 2,2′,2″-(10-(3-(((S)-1-carboxy-2-(4-hydroxy-3,5-diiodophenyl)ethyl)amino)-3-oxo-2-((R)-2-phenylpropanamido)propyl)-1,4,7,10-tetraazacyclododecane-1,4,7-triyl)triacetic acid] | 69 | 6.0 | 30.7 | 6.4 | 21.8 | 
4 | CNC(=O)CN(CCN(CCN(CC(=O)[O-])CC(=O)NC)CC(=O)[O-])CC(=O)[O-].[Gd+3] [[Gd(DTPA-BMA)(H2O)]] |  |  |  |  |  | time to 80% of the initial 1/T1 ([3]; 1 equiv. Zn(II), pH 7.0 phosphate buffer, 310 K): 124 min; q [4]: 1^16; r1 0.47 T 310K [5]: 3.5^17 mM^−1s^−1; r1 1.41 T 310K [5]: 3.3 (1.5 T)^17 mM^−1s^−1
5 | C[C@@H](NC(=O)C(CN1CCN(CC(=O)O)CCN(CC(=O)O)CCN(CC(=O)O)CC1)NC(=O)C(N)Cc1cc(I)c(O)c(I)c1)c1ccccc1 (stereo partly drawn) [Gd (13-R), 2,2′,2″-(10-(2-(2-amino-3-(4-hydroxy-3,5-diiodophenyl)propanamido)-3-oxo-3-(((R)-1-phenylethyl)amino)propyl)-1,4,7,10-tetraazacyclododecane-1,4,7-triyl)triacetic acid] | 36 | 6.6 | 18.4 | 6.4 | 11.4 | 
6 | C[C@@H](NC(=O)C(CN1CCN(CC(=O)O)CCN(CC(=O)O)CCN(CC(=O)O)CC1)NC(=O)C(N)Cc1cc(I)c(O)c(I)c1)c1ccccc1 (stereo partly drawn) [Gd (13-S), 2,2′,2″-(10-(2-(2-amino-3-(4-hydroxy-3,5-diiodophenyl)propanamido)-3-oxo-3-(((R)-1-phenylethyl)amino)propyl)-1,4,7,10-tetraazacyclododecane-1,4,7-triyl)triacetic acid] | 39 | 7.1 | 18.5 | 6.1 | 10.9 | 
7 | O=C([O-])CN(CCN(CC(=O)[O-])C[C@H](COP(=O)([O-])OC1CCC(c2ccccc2)(c2ccccc2)CC1)N(CC(=O)[O-])CC(=O)[O-])CC(=O)[O-].[Gd+3].[H+].[H+].[H+] [MS-325, gadofosveset] |  |  |  |  |  | Relaxivity per Gd, 200 MHz ([6]; 200 MHz): 5.7 mM⁻¹ s⁻¹; Relaxivity per Gd, 200 MHz, with HSA ([6]; 200 MHz, presence of 4.5% HSA): 5.0 mM⁻¹ s⁻¹; Relaxivity per Gd, 400 MHz ([6]; 400 MHz (9.4 T)): 4.8 mM⁻¹ s⁻¹; Relaxivity per Gd, 400 MHz, with HSA ([6]; 400 MHz, presence of 4.5% HSA): 4.1 mM⁻¹ s⁻¹; Relaxivity per Gd, 500 MHz ([6]; 500 MHz): 4.7 mM⁻¹ s⁻¹; Relaxivity per Gd, 500 MHz, with HSA ([6]; 500 MHz, presence of 4.5% HSA): 3.7 mM⁻¹ s⁻¹; Relaxivity per Gd, 20 MHz ([7]; 20 MHz, 37° C., literature data (footnotes a, b, d)): 6.8^d mM^−1 s^−1; Relaxivity per Gd, 20 MHz, with HSA ([7]; 20 MHz, 37° C., presence of 4.5% HSA, from ref 22): 42^d mM^−1 s^−1; Relaxivity per Gd, 60 MHz ([7]; 60 MHz, 37° C., literature data (footnotes a, b, d)): 5.4^d mM^−1 s^−1; Relaxivity per Gd, 60 MHz, with HSA ([7]; 60 MHz, 37° C., presence of 4.5% HSA, from ref 22): 23.8^d mM^−1 s^−1; peak molecular relaxivity ([7]; HSA-associated): above 40 mM^−1s^−1; increase in relaxivity once associated with human serum albumin (HSA) ([7]; at low fields): over 8 fold; q [4]: 1^18; r1 0.47 T 310K [5]: 5.8^17 mM^−1s^−1; r1 1.41 T 310K [5]: 5.2 (1.5 T)^17 mM^−1s^−1
8 | O=C(O)CN(CCN(CC(=O)O)CC(=O)O)CCN(CC(=O)O)CC(=O)O [DTPA] |  |  |  |  |  | Kcomp MS-325 vs. L pH 4 ([8]; pH 4): 0.58^5; Kcomp MS-325 vs. L pH 7.4 ([8]; pH 7.4): 0.35^5; Time to 80% r1 ([3]; Zn(II) challenge of the Gd(III) complex of L, this work): 383 min; Kcomp [Gd(DTPA)(H2O)]^2- vs. L pH 4 ([9]; pH 4): 1; Kcomp, [Gd(DTPA)(H2O)]^2- vs. L pH 7.4 ([9]; pH 7.4): 1
